Experiments:
Test in all cases: relative viability (nuclei count vs DMSO), 5 days (fraction); higher = more cells survive
NCI-H661 = tested on: NCI-H661
Method in brief: (§1)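 Cells from lung cancer lines were seeded into 1536-well plates and, one day later, dosed by pin tool. Treatments were either a single drug or a fixed dose of an anchor drug with five library-drug doses (not always all listed) in √10 steps. After 5 days, nuclei were stained in a one-step fixation (final 0.05% Triton X-100, 1% formaldehyde, 1 ug/ml Hoechst) and counted on 4× images, and relative viability is the treated-to-vehicle nuclei ratio, as the median of duplicate plates.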

BEN = tested on: BEN
Method in brief: as §1

NCI-H2087 = tested on: NCI-H2087
Method in brief: as §1

ABC-1 = tested on: ABC-1
Method in brief: as §1

NCI-H1915 = tested on: NCI-H1915
Method in brief: as §1

NCI-H650 = tested on: NCI-H650
Method in brief: as §1

NCI-H441 = tested on: NCI-H441
Method in brief: as §1

NCI-H727 = tested on: NCI-H727
Method in brief: as §1

201T = tested on: 201T
Method in brief: as §1

NCI-H520 = tested on: NCI-H520
Method in brief: as §1

NCI-H596 = tested on: NCI-H596
Method in brief: as §1

LCLC-97TM1 = tested on: LCLC-97TM1
Method in brief: as §1

NCI-H460 = tested on: NCI-H460
Method in brief: as §1

A-427 = tested on: A-427
Method in brief: as §1

LC-2-ad = tested on: LC-2-ad
Method in brief: as §1

NCI-H1944 = tested on: NCI-H1944
Method in brief: as §1

PC-3 [JPC-3] = tested on: PC-3 [JPC-3]
Method in brief: as §1

NCI-H2023 = tested on: NCI-H2023
Method in brief: as §1

CAL-12T = tested on: CAL-12T
Method in brief: as §1

NCI-H1651 = tested on: NCI-H1651
Method in brief: as §1

H3255 = tested on: H3255
Method in brief: as §1

For CCN(CC)CCCCNc1ncc2cc(-c3cc(OC)cc(OC)c3)c(NC(=O)NC(C)(C)C)nc2n1 + C[C@]1(O)C[C@@H](c2nc(-c3ccc4ccc(-c5ccccc5)nc4c3)c3c(N)nccn32)C1 [Linsitinib] (partner 1 µM), the relative viability (NCI-H661; first compound 0.01 µM) was 0.568, the relative viability (NCI-H661; first compound 0.03162 µM) was 0.45 and the relative viability (NCI-H661; first compound 0.1 µM) was 0.58. For the same compound, the relative viability (NCI-H661; first compound 0.3162 µM) was 0.61, the relative viability (NCI-H661; first compound 1 µM) was 0.535 and the relative viability (BEN; first compound 0.01 µM) was 1.11. It also gave a relative viability (BEN; first compound 0.03162 µM) of 0.838, a relative viability (BEN; first compound 0.1 µM) of 0.894 and a relative viability (BEN; first compound 0.3162 µM) of 1.07. For the same compound, the relative viability (BEN; first compound 1 µM) was 0.691, the relative viability (NCI-H2087; first compound 0.01 µM) was 0.912 and the relative viability (NCI-H2087; first compound 0.03162 µM) was 0.979. It also gave a relative viability (NCI-H2087; first compound 0.1 µM) of 1.21, a relative viability (NCI-H2087; first compound 0.3162 µM) of 1.02 and a relative viability (NCI-H2087; first compound 1 µM) of 0.883. It also gave a relative viability (ABC-1; first compound 0.01 µM) of 0.915, a relative viability (ABC-1; first compound 0.03162 µM) of 0.809 and a relative viability (ABC-1; first compound 0.1 µM) of 0.88. The relative viability (ABC-1; first compound 0.3162 µM) was 0.838, the relative viability (ABC-1; first compound 1 µM) was 0.722 and the relative viability (NCI-H1915; first compound 0.01 µM) was 1.11. For the same compound, the relative viability (NCI-H1915; first compound 0.03162 µM) was 1.12, the relative viability (NCI-H1915; first compound 0.1 µM) was 1.12 and the relative viability (NCI-H1915; first compound 0.3162 µM) was 1.1. The relative viability (NCI-H1915; first compound 1 µM) was 1.15, the relative viability (NCI-H650; first compound 0.01 µM) was 0.792 and the relative viability (NCI-H650; first compound 0.03162 µM) was 0.929. It also gave a relative viability (NCI-H650; first compound 0.1 µM) of 0.97, a relative viability (NCI-H650; first compound 0.3162 µM) of 1.1 and a relative viability (NCI-H650; first compound 1 µM) of 0.789. It also gave a relative viability (NCI-H441; first compound 0.01 µM) of 0.626, a relative viability (NCI-H441; first compound 0.03162 µM) of 0.441 and a relative viability (NCI-H441; first compound 0.1 µM) of 0.808. The relative viability (NCI-H441; first compound 0.3162 µM) was 0.635, the relative viability (NCI-H441; first compound 1 µM) was 0.432 and the relative viability (NCI-H727; first compound 0.01 µM) was 0.297. The relative viability (NCI-H727; first compound 0.03162 µM) was 0.251, the relative viability (NCI-H727; first compound 0.1 µM) was 0.293 and the relative viability (NCI-H727; first compound 0.3162 µM) was 0.363. For the same compound, the relative viability (NCI-H727; first compound 1 µM) was 0.301, the relative viability (201T; first compound 0.01 µM) was 1.07 and the relative viability (201T; first compound 0.03162 µM) was 1.02. The relative viability (201T; first compound 0.1 µM) was 1.07, the relative viability (201T; first compound 0.3162 µM) was 1.12 and the relative viability (201T; first compound 1 µM) was 1.02. For the same compound, the relative viability (NCI-H520; first compound 0.01 µM) was 0.998, the relative viability (NCI-H520; first compound 0.03162 µM) was 1.02 and the relative viability (NCI-H520; first compound 0.1 µM) was 0.948. It also gave a relative viability (NCI-H520; first compound 0.3162 µM) of 0.912, a relative viability (NCI-H520; first compound 1 µM) of 0.332 and a relative viability (NCI-H596; first compound 0.01 µM) of 1.1. The relative viability (NCI-H596; first compound 0.03162 µM) was 1.05, the relative viability (NCI-H596; first compound 0.1 µM) was 1.05 and the relative viability (NCI-H596; first compound 0.3162 µM) was 1.07. For the same compound, the relative viability (NCI-H596; first compound 1 µM) was 0.814, the relative viability (LCLC-97TM1; first compound 0.03162 µM) was 0.176 and the relative viability (LCLC-97TM1; first compound 0.1 µM) was 0.23. For the same compound, the relative viability (LCLC-97TM1; first compound 0.3162 µM) was 0.199, the relative viability (LCLC-97TM1; first compound 1 µM) was 0.216 and the relative viability (NCI-H460; first compound 0.01 µM) was 1.05. The relative viability (NCI-H460; first compound 0.03162 µM) was 0.985, the relative viability (NCI-H460; first compound 0.1 µM) was 0.868 and the relative viability (NCI-H460; first compound 0.3162 µM) was 1.58. The relative viability (NCI-H460; first compound 1 µM) was 0.293, the relative viability (A-427; first compound 0.01 µM) was 1.12 and the relative viability (A-427; first compound 0.03162 µM) was 1.17. For the same compound, the relative viability (A-427; first compound 0.1 µM) was 1.21, the relative viability (A-427; first compound 0.3162 µM) was 1.18 and the relative viability (A-427; first compound 1 µM) was 0.993. The relative viability (LC-2-ad; first compound 0.01 µM) was 0.803, the relative viability (LC-2-ad; first compound 0.03162 µM) was 0.913 and the relative viability (LC-2-ad; first compound 0.1 µM) was 0.958. For the same compound, the relative viability (LC-2-ad; first compound 0.3162 µM) was 0.876, the relative viability (LC-2-ad; first compound 1 µM) was 0.757 and the relative viability (NCI-H1944; first compound 0.01 µM) was 1.27. For the same compound, the relative viability (NCI-H1944; first compound 0.03162 µM) was 1.08, the relative viability (NCI-H1944; first compound 0.1 µM) was 1.2 and the relative viability (NCI-H1944; first compound 0.3162 µM) was 1.3. For the same compound, the relative viability (NCI-H1944; first compound 1 µM) was 1.12, the relative viability (PC-3 [JPC-3]; first compound 0.01 µM) was 0.999 and the relative viability (PC-3 [JPC-3]; first compound 0.03162 µM) was 0.982. It also gave a relative viability (PC-3 [JPC-3]; first compound 0.1 µM) of 0.954, a relative viability (PC-3 [JPC-3]; first compound 0.3162 µM) of 1.03 and a relative viability (PC-3 [JPC-3]; first compound 1 µM) of 0.993. For the same compound, the relative viability (NCI-H2023; first compound 0.01 µM) was 0.716, the relative viability (NCI-H2023; first compound 0.03162 µM) was 0.691 and the relative viability (NCI-H2023; first compound 0.1 µM) was 0.636. The relative viability (NCI-H2023; first compound 0.3162 µM) was 0.708, the relative viability (NCI-H2023; first compound 1 µM) was 0.685 and the relative viability (CAL-12T; first compound 0.01 µM) was 0.873. The relative viability (CAL-12T; first compound 0.03162 µM) was 0.954, the relative viability (CAL-12T; first compound 0.1 µM) was 0.729 and the relative viability (CAL-12T; first compound 0.3162 µM) was 0.906. It also gave a relative viability (CAL-12T; first compound 1 µM) of 0.844, a relative viability (NCI-H1651; first compound 0.01 µM) of 1.06 and a relative viability (NCI-H1651; first compound 0.03162 µM) of 0.931. The relative viability (NCI-H1651; first compound 0.1 µM) was 1.28, the relative viability (NCI-H1651; first compound 0.3162 µM) was 1.16 and the relative viability (NCI-H1651; first compound 1 µM) was 0.786. It also gave a relative viability (H3255; first compound 0.01 µM) of 1.02, a relative viability (H3255; first compound 0.03162 µM) of 1.04 and a relative viability (H3255; first compound 0.1 µM) of 0.986. The relative viability (H3255; first compound 0.3162 µM) was 1.06 and the relative viability (H3255; first compound 1 µM) was 0.892.

Source: the supplement of paper PMC10307832
